From patent publication US9119886B2, “Immunoconjugates for the treatment of tumours” (MolMed SpA, priority 2002, dated 2015)

B1: NGR-TNF: TNF fused with the C-terminus of CNGRCG; human or murine form not specified at the place (Example 15 used NGR-mTNF) (protein)
chain: CNGRCGMSTESMIRDVELAEEALPQKMGGFQNSRRCLCLSLFSFLLVAGATTLFCLLNFGVIGPQRDEKFPNGLPLISSMAQTLTLRSSSQNSSDKPVAHVVANHQVEEQLEWLSQRANALLANGMDLKDNQLVVPADGLYLVYSQVLFKGQGCPDYVLLTHTVSRFAISYQEKVNLLSAVKSPCPKDTPEGAELKPWYEPIYLGGVFQLEKGDQLSAEVNLPKYLDFAESGQVYFGVIAL

Assays:
B16F1 melanoma = experiment: anti-tumor activity (tumor growth) in B16F1 melanoma-bearing mice; format: in vivo, C57BL/6 mice
Description: C57BL/6 mice (Charles River Laboratories, Calco, Italy) weighing 16-18 g were challenged with subcutaneous injection in the left flank of 5×10^4 RMA-T or B16F1 living cells; 4-12 days later, the mice were treated with TNF or NGR-TNF solutions (100 μl) followed 2 hours later by administration of melphalan or doxorubicin solution (100 μl). Unless specified, all drugs were administered intraperitoneally (i.p.). All drugs were diluted with 0.9% sodium chloride, containing 100 μg/ml endotoxin-free human serum albumin (Farma-Biagini, Lucca, Italy), except for doxorubicin, which was diluted with 0.9% sodium chloride alone. Tumor growth was monitored daily by measuring the tumors with calipers as previously described (20). Animals were sacrificed before the tumors reached 1.0-1.5 cm in diameter. Tumor sizes are shown as mean±SE (5 animals/group).
We then investigated whether targeted delivery of low doses of NGR-mTNF to tumor vessles could enhance the anti-tumor activity of chemotherapeutic drugs.

B16F1 cells = experiment: 48 hour in vitro cytotoxicity assay on cultured B16F1 cells; format: cell-based, mouse
Description: To assess whether the synergism depends directly on cytotoxicity against tumor cells we measured the effect of each compound, alone or in combination, on cultured B16F1 cells.

RMA-T lymphoma = experiment: anti-tumor activity (tumor growth) in RMA-T lymphoma-bearing mice; format: in vivo, C57BL/6 mice; settings: RMA-T tumors, treatment at day 10, picogram doses

| Molecule | effect on tumor growth, single agent (B16F1 melanoma; melphalan 90 μg, mTNF or NGR-mTNF 0.1 ng i.p.) | killing of cultured cells (B16F1 cells) | dose sufficient to enhance the anti-tumor activity of melphalan and doxorubicin (B16F1 melanoma; systemic administration to mice) [µg/kg] | enhancement of therapeutic effect of cisplatinum (RMA-T lymphoma) |
| --- | --- | --- | --- | --- |
| N[C@@H](Cc1ccc(N(CCCl)CCCl)cc1)C(=O)O [Melphalan] | unable to effect the growth of tumors | Neither melphalan or NGR-mTNF, alone or in combination, killed these cells |  |  |
| B1 |  |  | 0.003 to 0.005 | sufficient to enhance the therapeutic effect of cisplatinum |
